Laboratory results reported in patent US20220000841A1, “INHIBITORS OF METALLO-BETA-LACTAMASES” (CENTRE NATIONAL DE LA RECHERCHE SCIENTIFIQUE, priority 2018, published 2022).

Columns and labels:
[1] = tested on: K. pneumoniae S1-002 (blaVIM-4+); assay: Broth microdilution MIC of meropenem in absence and presence of MBL inhibitor, S1-002; assay type: cell-based; settings: MBL inhibitor fixed at 32 μg/ml, Mueller-Hinton broth, duplicate
Description: (§1) This method was performed in agreement with the CLSI recommendations (document M07-A10, 2015, “Methods for Dilution Antimicrobial Susceptibility Tests for Bacteria That Grow Aerobically”).
(§2) MIC values of meropenem (MEM) were determined in duplicate in Mueller-Hinton broth as recommended by CLSI (document M07-A10, 2015), in absence and presence of a fixed concentration of MBL inhibitor (32 μg/ml).

[2] = tested on: K. pneumoniae SI-001 (blaVIM-1+); assay: Broth microdilution MIC of meropenem in absence and presence of MBL inhibitor, SI-001; assay type: cell-based; settings: MBL inhibitor fixed at 32 μg/ml, Mueller-Hinton broth, duplicate
Description: as §1, §2

[3] = target: NDM-1 (Klebsiella pneumoniae, UniProt C7C422); assay: Enzymatic assay for determination of inhibition constants, reporter substrate method, purified NDM-1; assay type: biochemical; settings: for % inhibition NDM-1: at 100 μM (maximal tested concentration); for Ki: isolated MBL, competitive inhibition model;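 on all read-outs here: purified enzyme activity followed as absorbance change from reporter substrate hydrolysis on a UV-Vis spectrophotometer or plate reader, 50 mM HEPES pH 7.5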
NDM-1, sequence (C7C422 29-270, looked up, species assumed): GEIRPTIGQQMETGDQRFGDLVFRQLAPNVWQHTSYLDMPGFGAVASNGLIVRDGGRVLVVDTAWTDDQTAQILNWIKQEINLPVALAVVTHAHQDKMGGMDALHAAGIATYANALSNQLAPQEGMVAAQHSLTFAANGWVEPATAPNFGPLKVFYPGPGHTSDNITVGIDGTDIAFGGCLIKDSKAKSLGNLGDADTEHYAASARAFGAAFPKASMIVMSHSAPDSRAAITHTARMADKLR

[4] = target: IMP-1 (Serratia marcescens, UniProt P52699); assay: Enzymatic assay for determination of inhibition constants, reporter substrate method, purified IMP-1; assay type: biochemical; settings: for % inhibition IMP-1: at 100 μM (maximal tested concentration); for Ki: isolated MBL, competitive inhibition model;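 on all read-outs here: purified IMP-1 (1-70 nM) hydrolysing a reporter substrate, initial rates followed as absorbance change at 260, 300 or 482 nm in 50 mM HEPES pH 7.5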
IMP-1, sequence (P52699 19-246, looked up, species assumed): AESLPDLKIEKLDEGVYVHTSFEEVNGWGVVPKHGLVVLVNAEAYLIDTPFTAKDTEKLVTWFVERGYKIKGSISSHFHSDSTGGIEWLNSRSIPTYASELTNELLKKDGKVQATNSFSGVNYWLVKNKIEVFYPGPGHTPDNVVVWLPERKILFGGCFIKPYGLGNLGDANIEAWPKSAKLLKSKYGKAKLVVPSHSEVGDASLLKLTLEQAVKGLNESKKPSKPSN

[5] = target: VIM-2 (Escherichia coli, UniProt Q5U7L7); assay: Enzymatic assay for determination of inhibition constants, reporter substrate method, purified VIM-2; assay type: biochemical; settings: for Ki: isolated MBL, competitive inhibition model, read-out: Ki VIM-2;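 on all read-outs here: purified VIM-2 hydrolysing a reporter substrate (imipenem, meropenem, cefotaxime or nitrocefin), reaction rate read as absorbance change, HEPES 50 mM at pH 7.5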
[6] = target: VIM-1 (Pseudomonas aeruginosa, UniProt A0A0F7KYQ8); assay: Enzymatic assay for determination of inhibition constants, reporter substrate method, purified VIM-1; assay type: biochemical; settings: for Ki: isolated MBL, competitive inhibition model;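 on all read-outs here: initial hydrolysis rates of a reporter β-lactam (imipenem, meropenem, cefotaxime or nitrocefin) followed by absorbance change, purified enzyme at 1–70 nM in 50 mM HEPES pH 7.5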
Description: (§3) The reaction rate was measured as the variation of absorbance observed upon substrate hydrolysis in a UV-Vis spectrophotometer or microplate reader at a wavelength of 300 nm (imipenem, meropenem), 260 nm (cefotaxime) or 482 nm (nitrocefin) in 50 mM HEPES buffer (pH 7.5) and in the presence of a purified MBL enzyme (such as VIM-1, VIM-2, VIM-4, NDM-1 and IMP-1, at a final concentration ranging 1-70 nM).
(§4) The inhibition constants (Ki) were determined on the basis of a model of competitive inhibition by analyzing the dependence of the ratio v0/vi (v0, hydrolysis velocity in the absence of inhibitor; vi, hydrolysis velocity in the presence of inhibitor) as a function of [I] as already described [Docquier J. D., Lamotte-Brasseur J., Galleni M., Amicosante G., Frère J. M., Rossolini G. M. (2003) J. Antimicrob. […] The slope of the plot of v0/vi vs [I], which corresponds to Km^S/(Km^S+[S])Ki (where Km^S is the Km value of the reporter substrate and [S] its concentration in the reaction mixture) and allowed the calculation of the Ki value. Alternatively, a Dixon plot analysis was carried out, by measuring the initial hydrolysis rates in the presence of variable concentrations of inhibitor and substrate.

[7] = target: VIM-4 (Pseudomonas aeruginosa, UniProt Q8KRJ3); assay: Enzymatic assay for determination of inhibition constants, reporter substrate method, purified VIM-4; assay type: biochemical; settings: at 100 μM (maximal tested concentration);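 further: purified VIM-4 (1-70 nM) in 50 mM HEPES pH 7.5, reporter substrate hydrolysis rate tracked by absorbance change (nitrocefin 482 nm, imipenem or meropenem 300 nm, cefotaxime 260 nm)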
Description: as §3, §4

[8] = at 100 μM (maximal tested concentration)

| SMILES | MIC potentiation of meropenem (x.log2 dilutions), K. pneumoniae S1-002 (blaVIM-4+) [1] [log2 dilutions] | MIC potentiation of meropenem (x.log2 dilutions), K. pneumoniae SI-001 (blaVIM-1+) [2] [log2 dilutions] | % inhibition NDM-1 [3] [% at 100 μM] | % inhibition IMP-1 [4] [% at 100 μM] | Ki [5] [µM] | Ki [6] [µM] | Ki [3] [µM] | Ki [4] [µM] | % inhibition VIM-4 [7] [% at 100 μM] | % inhibition VIM-2 [5, 8] [% at 100 μM] | % inhibition VIM-1 [6, 8] [% at 100 μM] |
| --- | --- | --- | --- | --- | --- | --- | --- | --- | --- | --- | --- |
| O=C(O)C(CSCCn1c(-c2cccc(-c3ccccc3)c2)n[nH]c1=S)c1ccccc1 (stereo not shown) [Compound 81, 3-{2-[3-(3-Biphenylyl)-5-thioxo-1,4-dihydro-1,2,4-triazol-4-yl]ethylthio}-hydratropic acid] | 3 | 2 | 77 | 56 | < 1 | 1 to 10 | – | – | – | – | – |
| O=C(O)c1ccccc1CCn1c(-c2cccc(OCCN3CCOCC3)c2)n[nH]c1=S [Compound 62, o-(2-{3-[m-(2-Morpholinoethoxy)phenyl]-5-thioxo-1,4-dihydro-1,2,4-triazol-4-yl}ethyl)benzoic acid] | 3 | 2 | – | – | < 1 | 1 to 10 | > 100 | > 100 | – | – | – |
| Fc1ccc(CSCCn2c(-c3ccccc3)n[nH]c2=S)c(F)c1 [Compound 73, 4-[2-(2,4-Difluorobenzylsulfanyl)ethyl]-3-phenyl-4,5-dihydro-1H-1,2,4-triazole-5-thione] | ≥4 | 3 | – | – | < 1 | 1 to 10 | 10 to 100 | 1 to 10 | – | – | – |
| O=C(O)C(CCCn1c(-c2ccccc2)n[nH]c1=S)N(Cc1c[nH]cn1)Cc1c[nH]cn1 (stereo not shown) [Compound 69, 2-[Bis(1H-imidazol-5-ylmethyl)amino]-5-(3-phenyl-5-sulfanylidene-4,5-dihydro-1H-1,2,4-triazol-4-yl)pentanoic acid] | ≥4 | ≥4 | 85 | – | < 1 | < 1 | – | > 100 | – | – | – |
| Fc1ccc(CSCCn2c(-c3ccccc3)n[nH]c2=S)cc1 [Compound 72, 4-[2-(4-Fluorobenzylsulfanyl)ethyl]-3-phenyl-4,5-dihydro-1H-1,2,4-triazole-5-thione] | 3 | 1 | – | 96 | < 1 | 1 to 10 | 1 to 10 | – | – | – | – |
| Oc1ccc(CCn2c(-c3cccc(-c4ccccc4)c3)n[nH]c2=S)c(O)c1 [Compound 42, 5-(3-Biphenyl)-4-[2-(2,4-dihydroxyphenyl)ethyl]-1,2,4-triazole-3-thione] | ≥4 | ≥4 | – | – | 1 to 10 | < 1 | 10 to 100 | > 100 | – | – | – |
| O=C(O)C(CCCn1c(-c2ccccc2)n[nH]c1=S)NCc1cccc(O)c1O (stereo not shown) [Compound 67] | 2 | 2 | – | – | – | – | > 100 | > 100 | 60 | 55 | 70 |
| O=C(O)c1ccccc1CCn1c(-c2cccc(-c3ccccc3)c2)n[nH]c1=S [Compound 39, 5-(3-Biphenyl)-4-[2-(2-carboxyphenyl)ethyl]-1,2,4-triazole-3-thione] | ≥4 | 3 | – | – | < 1 | 1 to 10 | > 100 | > 100 | – | – | – |
| O=C1OC(Cn2c(-c3ccccc3)n[nH]c2=S)c2ccccc21 (stereo not shown) [Compound 37, 5-Phenyl-4-[(3-phthalideyl)methyl]-2,4-dihydro-1,2,4-triazole-3-thione] | 3 | 3 | 50 | – | > 100 | < 1 | – | > 100 | – | – | – |
| O=[N+]([O-])c1ccccc1CSCCn1c(-c2ccccc2)n[nH]c1=S [Compound 75, 4-[2-(2-Nitrobenzylsulfanyl)ethyl]-3-phenyl-4,5-dihydro-1H-1,2,4-triazole-5-thione] | ≥4 | 3 | 69 | 72 | < 1 | < 1 | – | – | – | – | – |
| CN1CCN(CCOc2cccc(-c3n[nH]c(=S)n3CCc3ccccc3C(=O)O)c2)CC1 [Compound 63, o-[2-(3-{m-[2-(4-Methyl-1-piperazinyl)ethoxy]phenyl}-5-thioxo-1,4-dihydro-1,2,4-triazol-4-yl)ethyl]benzoic acid] | 3 | 2 | – | – | < 1 | 1 to 10 | > 100 | > 100 | – | – | – |
| Fc1ccccc1CSCCn1c(-c2ccccc2)n[nH]c1=S [Compound 71, 4-[2-(2-Fluorobenzylsulfanyl)ethyl]-3-phenyl-4,5-dihydro-1H-1,2,4-triazole-5-thione] | 3 | ≥4 | – | 97 | < 1 | < 1 | 10 to 100 | – | – | – | – |
| O=C(O)C(CSCCn1c(-c2ccccc2)n[nH]c1=S)c1ccccc1 (stereo not shown) [Compound 78, 2-Phenyl-3-[2-(3-phenyl-5-thioxo-1,4-dihydro-1,2,4-triazol-4-yl)ethylthio]-propionic acid] | 2 | 3 | – | – | < 1 | < 1 | 1 to 10 | 10 to 100 | – | – | – |
| Cn1cccc1-c1n[nH]c(=S)n1CCSCc1ccccc1 [Compound 64, 4-[2-(Benzylthio)ethyl]-5-(1-methyl-1H-pyrrol-2-yl)-2,4-dihydro-1,2,4-triazole-3-thione] | ≥4 | 3 | 75 | 90 | < 1 | < 1 | – | – | – | – | – |
| O=C(O)CCSCCn1c(-c2ccccc2)n[nH]c1=S [Compound 66, [2-(3-Phenyl-5-thioxo-1,4-dihydro-1,2,4-triazol-4-yl)ethylthio]propionic acid] | ≥4 | 3 | 60 | 65 | 1 to 10 | 1 to 10 | – | – | – | – | – |
| O=[N+]([O-])c1ccc(O)c(CSCCn2c(-c3ccccc3)n[nH]c2=S)c1 [Compound 76, 4-[2-(2-Hydroxy-5-Nitrobenzylsulfanyl)ethyl]-3-phenyl-4,5-dihydro-1H-1,2,4-triazole-5-thione] | 2 | ≥4 | 77 | 62 | < 1 | < 1 | – | – | – | – | – |
| S=c1[nH]nc(-c2ccccc2)n1CCSc1ccccc1 [Compound 70, 5-Phenyl-4-[2-(phenylthio)ethyl]-2,4-dihydro-1,2,4-triazole-3-thione] | ≥4 | ≥4 | – | 84 | 1 to 10 | 1 to 10 | 10 to 100 | – | – | – | – |
